Test results from ChEMBL document CHEMBL3045802, “Synthesis and in vitro antitumor activity of new quinoline, pyrimido[4,5-b]quinoline, [1,2,3]triazino[4,5-b]quinoline, and [1,2,4]triazolo[2,3:3,4]pyrimido[6,5-b]quinoline analogs” (2013).

Columns and labels:
Type in all cases: functional
[1] = system: HOP-62; test: Cytotoxicity against Homo sapiens (human) HOP62 cells assessed as growth inhibition at 10 uM after 48 hr by coulter counter analysis; conditions: HOP-62, 48 h, read-out: GI
[2] = system: HCT-116; test: Cytotoxicity against Homo sapiens (human) HCT116 cells assessed as growth inhibition at 10 uM after 48 hr by coulter counter analysis; conditions: HCT-116, 48 h, read-out: GI
[3] = system: K562; test: Cytotoxicity against Homo sapiens (human) K562 cells assessed as growth inhibition at 10 uM after 48 hr by coulter counter analysis; conditions: K562, 48 h, read-out: GI
[4] = system: A498; test: Cytotoxicity against Homo sapiens (human) A498 cells assessed as growth inhibition at 10 uM after 48 hr by coulter counter analysis; conditions: A498, 48 h, read-out: GI
[5] = system: SF-539; test: Cytotoxicity against Homo sapiens (human) SF539 cells assessed as growth inhibition at 10 uM after 48 hr by coulter counter analysis; conditions: SF-539, 48 h, read-out: GI
[6] = system: COLO 205; test: Cytotoxicity against Homo sapiens (human) COLO205 cells assessed as growth inhibition at 10 uM after 48 hr by coulter counter analysis; conditions: COLO 205, 48 h, read-out: GI
[7] = system: SK-MEL-28; test: Cytotoxicity against Homo sapiens (human) SK-MEL-28 cells assessed as growth inhibition at 10 uM after 48 hr by coulter counter analysis; conditions: SK-MEL-28, 48 h, read-out: GI
[8] = system: A549; test: Cytotoxicity against Homo sapiens (human) A549 cells assessed as growth inhibition at 10 uM after 48 hr by coulter counter analysis; conditions: A549, 48 h, read-out: GI
[9] = system: NCI-H522; test: Cytotoxicity against Homo sapiens (human) NCI-H522 cells assessed as growth inhibition at 10 uM after 48 hr by coulter counter analysis; conditions: NCI-H522, 48 h, read-out: GI
[10] = system: SK-MEL-2; test: Cytotoxicity against Homo sapiens (human) SK-MEL-2 cells assessed as growth inhibition at 10 uM after 48 hr by coulter counter analysis; conditions: SK-MEL-2, 48 h, read-out: GI
[11] = system: Malme-3M; test: Cytotoxicity against Homo sapiens (human) MALME-3M cells assessed as growth inhibition at 10 uM after 48 hr by coulter counter analysis; conditions: read-out: GI
[12] = system: BT-549; test: Cytotoxicity against Homo sapiens (human) BT549 cells assessed as growth inhibition at 10 uM after 48 hr by coulter counter analysis; conditions: BT-549, 48 h, read-out: GI
[13] = system: T47D; test: Cytotoxicity against Homo sapiens (human) T47D cells assessed as growth inhibition at 10 uM after 48 hr by coulter counter analysis; conditions: read-out: GI
[14] = system: HL-60(TB); test: Cytotoxicity against Homo sapiens (human) HL-60(TB) cells assessed as growth inhibition at 10 uM after 48 hr by coulter counter analysis; conditions: HL-60, 48 h, read-out: GI
[15] = system: SN12C; test: Cytotoxicity against Homo sapiens (human) SN12C cells assessed as growth inhibition at 10 uM after 48 hr by coulter counter analysis; conditions: read-out: GI
[16] = system: SNB-19; test: Cytotoxicity against Homo sapiens (human) SNB19 cells assessed as growth inhibition at 10 uM after 48 hr by coulter counter analysis; conditions: SNB-19, 48 h, read-out: GI
[17] = system: SR; test: Cytotoxicity against Homo sapiens (human) SR cells assessed as growth inhibition at 10 uM after 48 hr by coulter counter analysis; conditions: read-out: GI
[18] = Cytotoxicity against Homo sapiens (human) NCI-ADR-RES cells assessed as growth inhibition at 10 uM after 48 hr by coulter counter analysis; conditions: read-out: GI
[19] = system: MDA-MB-435; test: Cytotoxicity against Homo sapiens (human) MDA-MB-435 cells assessed as growth inhibition at 10 uM after 48 hr by coulter counter analysis; conditions: MDA-MB-435, 48 h, read-out: GI
[20] = system: NCI-H226; test: Cytotoxicity against Homo sapiens (human) NCI-H226 cells assessed as growth inhibition at 10 uM after 48 hr by coulter counter analysis; conditions: NCI-H226, 48 h, read-out: GI
[21] = system: NCI-H460; test: Cytotoxicity against Homo sapiens (human) NCI-H460 cells assessed as growth inhibition at 10 uM after 48 hr by coulter counter analysis; conditions: NCI-H460, 48 h, read-out: GI
[22] = system: UACC-257; test: Cytotoxicity against Homo sapiens (human) UACC257 cells assessed as growth inhibition at 10 uM after 48 hr by coulter counter analysis; conditions: UACC-257, 48 h, read-out: GI
[23] = system: HT-29; test: Cytotoxicity against Homo sapiens (human) HT-29 cells assessed as growth inhibition at 10 uM after 48 hr by coulter counter analysis; conditions: HT-29, 48 h, read-out: GI
[24] = system: EKVX; test: Cytotoxicity against Homo sapiens (human) EKVX cells assessed as growth inhibition at 10 uM after 48 hr by coulter counter analysis; conditions: read-out: GI
[25] = system: DU-145; test: Cytotoxicity against Homo sapiens (human) DU145 cells assessed as growth inhibition at 10 uM after 48 hr by coulter counter analysis; conditions: DU-145, 48 h, read-out: GI
[26] = system: OVCAR-5; test: Cytotoxicity against Homo sapiens (human) OVCAR5 cells assessed as growth inhibition at 10 uM after 48 hr by coulter counter analysis; conditions: OVCAR-5, 48 h, read-out: GI
[27] = system: OVCAR-3; test: Cytotoxicity against Homo sapiens (human) OVCAR3 cells assessed as growth inhibition at 10 uM after 48 hr by coulter counter analysis; conditions: OVCAR-3, 48 h, read-out: GI
[28] = system: CCRF-CEM; test: Cytotoxicity against Homo sapiens (human) CCRF-CEM cells assessed as growth inhibition at 10 uM after 48 hr by coulter counter analysis; conditions: read-out: GI
[29] = system: SK-MEL-5; test: Cytotoxicity against Homo sapiens (human) SK-MEL-5 cells assessed as growth inhibition at 10 uM after 48 hr by coulter counter analysis; conditions: SK-MEL-5, 48 h, read-out: GI
[30] = system: HCC 2998; test: Cytotoxicity against Homo sapiens (human) HCC2998 cells assessed as growth inhibition at 10 uM after 48 hr by coulter counter analysis; conditions: HCC 2998, 48 h, read-out: GI
[31] = system: NCI-H23; test: Cytotoxicity against Homo sapiens (human) NCI-H23 cells assessed as growth inhibition at 10 uM after 48 hr by coulter counter analysis; conditions: NCI-H23, 48 h, read-out: GI
[32] = system: HOP-92; test: Cytotoxicity against Homo sapiens (human) HOP92 cells assessed as growth inhibition at 10 uM after 48 hr by coulter counter analysis; conditions: HOP-92, 48 h, read-out: GI
[33] = system: RPMI-8226; test: Cytotoxicity against Homo sapiens (human) RPMI8226 cells assessed as growth inhibition at 10 uM after 48 hr by coulter counter analysis; conditions: RPMI-8226, 48 h, read-out: GI
[34] = system: SW-620; test: Cytotoxicity against Homo sapiens (human) SW620 cells assessed as growth inhibition at 10 uM after 48 hr by coulter counter analysis; conditions: SW-620, 48 h, read-out: GI

SMILES: O=c1[nH]nnc2c1C(c1ccc(Cl)cc1)C1=C(CCCC1)N2 (centres undefined)
- inhibition of growth at 10 µM [1]: < 10%
- inhibition of growth at 10 µM [2]: < 10%
- inhibition of growth at 10 µM [3]: < 10%
- inhibition of growth at 10 µM [4]: 28.3%
- inhibition of growth at 10 µM [5]: < 10%
- inhibition of growth at 10 µM [6]: 13.5%
- inhibition of growth at 10 µM [7]: < 10%
- inhibition of growth at 10 µM [8]: < 10%
- inhibition of growth at 10 µM [9]: 13.5%
- inhibition of growth at 10 µM [10]: < 10%
- inhibition of growth at 10 µM [11]: < 10%
- inhibition of growth at 10 µM [12]: < 10%
- inhibition of growth at 10 µM [13]: 13.3%
- inhibition of growth at 10 µM [14]: < 10%
- inhibition of growth at 10 µM [15]: < 10%
- inhibition of growth at 10 µM [16]: < 10%
- inhibition of growth at 10 µM [17]: < 10%
- inhibition of growth at 10 µM [18]: < 10%
- inhibition of growth at 10 µM [19]: < 10%
- inhibition of growth at 10 µM [20]: 10.3%
- inhibition of growth at 10 µM [21]: < 10%
- inhibition of growth at 10 µM [22]: < 10%
- inhibition of growth at 10 µM [23]: < 10%
- inhibition of growth at 10 µM [24]: 10.9%
- inhibition of growth at 10 µM [25]: < 10%
- inhibition of growth at 10 µM [26]: < 10%
- inhibition of growth at 10 µM [27]: < 10%
- inhibition of growth at 10 µM [28]: < 10%
- inhibition of growth at 10 µM [29]: 13%
- inhibition of growth at 10 µM [30]: < 10%
- inhibition of growth at 10 µM [31]: 10.4%
- inhibition of growth at 10 µM [32]: < 10%
- inhibition of growth at 10 µM [33]: < 10%
- inhibition of growth at 10 µM [34]: < 10%
